Measurements reported in patent publication US9585875B2, “TRPM8 antagonists” (Dompé S.P.A., priority 2011, dated 2017).

How the values were obtained:
Microsome stability [1] = format: in vitro ADME; conditions: rat
CYP 2D6 = CYP 2D6 (Homo sapiens, UniProt P10635); test: CYP inhibition; format: in vitro ADME
TRPM8 [2] = target: T1, TRPM8 (Homo sapiens, UniProt Q7Z2W7); test: cell-based
Description: (§4) Values were considered significant if the test compound mean was three or more standard deviations away from the positive control agonist mean.

TRPV4 = TRPV4 (Homo sapiens, UniProt Q9HBA0); test: Calcium influx counterassay, agonist GSK1016790A; format: cell-based; conditions: 10 μM GSK1016790A = 100%, read-out: Normalized % inhibition (TRPV4); for inhibition at 1 µM: Test Conc. 1 uM; for inhibition at 10 µM: Test Conc. 10 uM
Experimental: In parallel, the ability of each test compound to act as an antagonist of TRPV4 was evaluated with a calcium influx assay.

CYP 2C19 = CYP 2C19 (Homo sapiens, UniProt P33261); test: CYP inhibition; format: in vitro ADME
Female rats = test: Isovolumetric bladder model; format: in vivo, rat
Experimental: Female rats were anesthetized with urethane. Ureters were ligated and sectioned. A catheter was inserted through the urinary meatus into the bladder before urethral ligature. […] 10 or 45 or with 100 μL of vehicle, then with 100 μL of saline every 5 min until the occurrence of rhythmic bladder contraction (RBC). A maximal volume of 3 mL was infused. The intravesical pressure was followed during 1 h30 after RBC appearance. For each group, Threshold Volume (TV), Micturition Frequency (MF) and Amplitude of Micturition (AM) were measured during the whole period. […] No effect on the total MF (measured during 90 min) was observed.

TRPV1 = TRPV1 (Homo sapiens, UniProt Q8NER1); test: Calcium influx counterassay, agonist capsaicin; format: cell-based; conditions: 0.1 μM capsaicin = 100%, read-out: Normalized % inhibition (TRPV1); for inhibition at 1 µM: Test Conc. 1 uM; for inhibition at 10 µM: Test Conc. 10 uM
Experimental: In order to address more specifically the potential selectivity issues, a counterassay was carried out for 10, 45 and 118 against TRPV1 and TRPV4 ion channels, both involved in the nociception (Jhaveri M D, et al 2005. Eur. J. Neurosci. 22 (2): 361-70, Brierley S M et al, 2008, Gastroenterology. 2008 June; 134(7):2059-69. ). The ability of each test compound to act as an antagonist of TRPV1 was evaluated with a calcium influx assay.

[3] = Pharmacokinetic profile in rat; format: in vivo; conditions: plasma; for half-life: iv, read-out: t1/2 i.v. rat
Microsome stability [4] = format: in vitro ADME; conditions: human
[5] = target: T2, human Dopamine D3 Receptor (Homo sapiens, UniProt P35462); test: Radioligand binding assay; conditions: read-out: percentage of control binding value (% B)
T2 construct: expressed in transfected cells; host or cells: HEK293 or CHO
Experimental: (§1) The objective of this study was to evaluate the in vitro effects of compounds 10 and 45 on cloned human GPCRs (G-protein coupled receptors) expressed in HEK293 or CHO cells using radioligand binding assays (compound concentration=10 μM).
(§2) Three replicates were performed for each experiment.
(§3) For each assay a concentration-response curve of the appropriate reference compound was performed in each experiment. The sample radioactivity content was measured after the addition of the scintillation cocktail Microscint 20 (PerkinElmer), by a microplate scintillation Beta-counter TopCount NXT (PerkinElmer). The atomic disintegrations per minutes evaluated with the beta counter were about 15 times higher than those found using the gamma counter. Data are expressed as percentage of control binding value (% B) and test compound inhibition was considered significant when % B was <75% at 10 μM.

[6] = target: T3, human Muscarinic M3 Receptor (Homo sapiens, UniProt P20309); test: Radioligand binding assay; conditions: read-out: percentage of control binding value (% B)
T3 construct: expressed in transfected cells; host or cells: HEK293 or CHO
Experimental: as §1, §2, §3

[7] = target: T4, human Adrenergic α1A Receptor (Homo sapiens, UniProt P35348); test: Radioligand binding assay; conditions: read-out: percentage of control binding value (% B)
T4 construct: expressed in transfected cells; host or cells: HEK293 or CHO
Experimental: as §1, §2, §3

[8] = target: T5, human Dopamine D2S Receptor (Homo sapiens, UniProt P14416); test: Radioligand binding assay; conditions: read-out: percentage of control binding value (% B)
T5 construct: expressed in transfected cells; host or cells: HEK293 or CHO
Experimental: as §1, §2, §3

[9] = target: T6, human Cannabinoid CB2 Receptor (Homo sapiens, UniProt P34972); test: Radioligand binding assay; conditions: read-out: percentage of control binding value (% B)
T6 construct: expressed in transfected cells; host or cells: HEK293 or CHO
Experimental: as §1, §2, §3

[10] = target: T7, human Histamine H2 Receptor (Homo sapiens, UniProt P25021); test: Radioligand binding assay; conditions: read-out: percentage of control binding value (% B)
T7 construct: expressed in transfected cells; host or cells: HEK293 or CHO
Experimental: as §1, §2, §3

[11] = target: T8, human Adrenergic α2A Receptor (Homo sapiens, UniProt P08913); test: Radioligand binding assay; conditions: read-out: percentage of control binding value (% B)
T8 construct: expressed in transfected cells; host or cells: HEK293 or CHO
Experimental: as §1, §2, §3

[12] = target: T9, human Histamine H1 Receptor (Homo sapiens, UniProt P35367); test: Radioligand binding assay; conditions: read-out: percentage of control binding value (% B)
T9 construct: expressed in transfected cells; host or cells: HEK293 or CHO
Experimental: as §1, §2, §3

[13] = target: T10, human Adrenergic β2 Receptor (Homo sapiens, UniProt P07550); test: Radioligand binding assay; conditions: read-out: percentage of control binding value (% B)
T10 construct: expressed in transfected cells; host or cells: HEK293 or CHO
Experimental: as §1, §2, §3

[14] = target: T11, human Muscarinic M2 Receptor (Homo sapiens, UniProt P08172); test: Radioligand binding assay; conditions: read-out: percentage of control binding value (% B)
T11 construct: expressed in transfected cells; host or cells: HEK293 or CHO
Experimental: as §1, §2, §3

[15] = target: T12, human Adrenergic β1 Receptor (Homo sapiens, UniProt P08588); test: Radioligand binding assay; conditions: read-out: percentage of control binding value (% B)
T12 construct: expressed in transfected cells; host or cells: HEK293 or CHO
Experimental: as §1, §2, §3

TRPM8 [16] = target: T1, TRPM8
Description: as §4

CYP 1A2 = CYP 1A2 (Homo sapiens, UniProt P05177); test: CYP inhibition; format: in vitro ADME
Plasma stability [17] = format: in vitro ADME; conditions: rat
Plasma stability [18] = format: in vitro ADME; conditions: human
[19] = intravesical, 3 times 100 μL containing 0.1 mg

Sequence of TRPV1 (Q8NER1 whole entry, species assumed): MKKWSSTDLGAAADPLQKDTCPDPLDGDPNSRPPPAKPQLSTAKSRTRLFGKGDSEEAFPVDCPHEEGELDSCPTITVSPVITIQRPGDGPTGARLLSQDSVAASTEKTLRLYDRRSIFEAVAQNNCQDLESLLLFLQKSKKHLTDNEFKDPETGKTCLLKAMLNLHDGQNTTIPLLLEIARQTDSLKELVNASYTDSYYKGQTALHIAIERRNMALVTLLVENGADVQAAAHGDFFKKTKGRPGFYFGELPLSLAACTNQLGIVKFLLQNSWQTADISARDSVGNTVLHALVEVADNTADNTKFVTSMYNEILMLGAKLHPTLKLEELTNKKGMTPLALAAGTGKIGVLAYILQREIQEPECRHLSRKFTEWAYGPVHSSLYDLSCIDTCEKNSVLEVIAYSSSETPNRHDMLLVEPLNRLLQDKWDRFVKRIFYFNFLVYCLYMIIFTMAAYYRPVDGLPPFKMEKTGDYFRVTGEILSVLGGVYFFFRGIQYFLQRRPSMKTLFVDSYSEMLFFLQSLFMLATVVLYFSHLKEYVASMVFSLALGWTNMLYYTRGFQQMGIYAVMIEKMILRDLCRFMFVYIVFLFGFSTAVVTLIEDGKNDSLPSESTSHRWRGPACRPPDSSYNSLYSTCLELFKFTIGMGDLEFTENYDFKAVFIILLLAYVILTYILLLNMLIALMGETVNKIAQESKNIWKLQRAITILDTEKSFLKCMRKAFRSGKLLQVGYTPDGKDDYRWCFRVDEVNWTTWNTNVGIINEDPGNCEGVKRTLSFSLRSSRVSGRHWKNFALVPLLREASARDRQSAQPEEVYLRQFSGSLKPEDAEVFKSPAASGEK
T1 sequence (Q7Z2W7 whole entry): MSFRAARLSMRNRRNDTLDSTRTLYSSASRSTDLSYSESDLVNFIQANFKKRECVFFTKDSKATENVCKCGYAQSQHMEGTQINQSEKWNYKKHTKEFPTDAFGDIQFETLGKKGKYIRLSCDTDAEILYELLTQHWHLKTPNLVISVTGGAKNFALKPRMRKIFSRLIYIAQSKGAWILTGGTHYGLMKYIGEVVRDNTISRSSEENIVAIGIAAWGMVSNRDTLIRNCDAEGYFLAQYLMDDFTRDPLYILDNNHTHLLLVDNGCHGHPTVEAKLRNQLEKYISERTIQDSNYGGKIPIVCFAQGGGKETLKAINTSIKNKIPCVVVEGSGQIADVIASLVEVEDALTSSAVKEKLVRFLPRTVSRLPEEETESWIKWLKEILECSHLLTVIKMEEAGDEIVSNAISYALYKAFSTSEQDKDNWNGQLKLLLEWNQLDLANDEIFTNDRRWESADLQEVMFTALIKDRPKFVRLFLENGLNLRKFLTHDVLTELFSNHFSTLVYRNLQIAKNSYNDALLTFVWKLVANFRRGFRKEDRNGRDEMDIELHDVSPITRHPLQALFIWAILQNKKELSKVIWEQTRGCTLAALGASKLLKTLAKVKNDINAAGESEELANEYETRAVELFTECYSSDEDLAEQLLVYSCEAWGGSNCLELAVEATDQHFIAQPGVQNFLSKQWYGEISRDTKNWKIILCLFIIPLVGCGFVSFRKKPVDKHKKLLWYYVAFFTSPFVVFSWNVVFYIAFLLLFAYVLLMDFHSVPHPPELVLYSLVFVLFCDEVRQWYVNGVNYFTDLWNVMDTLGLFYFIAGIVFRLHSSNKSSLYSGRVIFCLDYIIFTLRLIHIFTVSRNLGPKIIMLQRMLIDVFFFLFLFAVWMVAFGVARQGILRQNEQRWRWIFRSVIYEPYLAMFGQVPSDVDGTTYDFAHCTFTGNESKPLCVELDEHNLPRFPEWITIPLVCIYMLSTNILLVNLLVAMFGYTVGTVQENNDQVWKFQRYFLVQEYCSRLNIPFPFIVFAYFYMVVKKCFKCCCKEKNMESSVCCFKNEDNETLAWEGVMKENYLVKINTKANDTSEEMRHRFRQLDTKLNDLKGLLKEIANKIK
Sequence of TRPV4 (Q9HBA0 whole entry, species assumed): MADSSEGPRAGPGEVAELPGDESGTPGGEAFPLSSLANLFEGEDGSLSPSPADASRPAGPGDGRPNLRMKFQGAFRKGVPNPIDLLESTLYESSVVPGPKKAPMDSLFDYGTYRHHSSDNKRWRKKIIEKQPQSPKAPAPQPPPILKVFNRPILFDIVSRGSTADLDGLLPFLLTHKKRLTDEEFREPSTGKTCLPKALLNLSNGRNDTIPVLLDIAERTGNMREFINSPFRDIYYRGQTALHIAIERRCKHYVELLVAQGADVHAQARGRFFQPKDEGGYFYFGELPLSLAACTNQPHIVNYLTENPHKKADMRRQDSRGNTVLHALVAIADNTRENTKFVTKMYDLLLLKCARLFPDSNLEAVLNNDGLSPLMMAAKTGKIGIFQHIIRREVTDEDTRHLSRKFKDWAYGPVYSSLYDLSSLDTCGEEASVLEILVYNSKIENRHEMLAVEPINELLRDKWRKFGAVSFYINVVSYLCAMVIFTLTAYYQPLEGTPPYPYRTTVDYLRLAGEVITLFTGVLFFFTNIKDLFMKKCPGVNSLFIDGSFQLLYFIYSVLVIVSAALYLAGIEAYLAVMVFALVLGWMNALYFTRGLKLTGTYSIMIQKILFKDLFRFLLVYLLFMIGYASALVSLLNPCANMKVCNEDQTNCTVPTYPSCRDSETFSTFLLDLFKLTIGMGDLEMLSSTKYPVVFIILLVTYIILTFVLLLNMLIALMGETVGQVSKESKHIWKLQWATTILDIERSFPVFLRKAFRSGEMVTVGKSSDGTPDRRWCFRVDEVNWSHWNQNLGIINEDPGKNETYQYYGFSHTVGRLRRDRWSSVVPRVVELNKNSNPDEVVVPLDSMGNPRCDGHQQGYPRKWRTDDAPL
T9 sequence (P35367 whole entry): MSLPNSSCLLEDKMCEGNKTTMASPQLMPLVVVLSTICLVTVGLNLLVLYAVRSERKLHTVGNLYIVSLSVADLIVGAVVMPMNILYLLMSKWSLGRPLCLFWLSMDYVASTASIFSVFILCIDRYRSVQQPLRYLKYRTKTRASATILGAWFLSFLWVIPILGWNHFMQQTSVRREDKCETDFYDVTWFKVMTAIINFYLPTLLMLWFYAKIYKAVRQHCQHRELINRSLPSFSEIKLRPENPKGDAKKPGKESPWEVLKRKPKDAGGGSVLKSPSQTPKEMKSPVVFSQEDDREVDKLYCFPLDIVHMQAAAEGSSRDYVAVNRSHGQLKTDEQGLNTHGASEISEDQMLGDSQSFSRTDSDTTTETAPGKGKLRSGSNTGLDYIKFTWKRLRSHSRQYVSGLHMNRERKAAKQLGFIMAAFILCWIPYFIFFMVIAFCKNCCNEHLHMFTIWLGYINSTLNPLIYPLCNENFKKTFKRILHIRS
T10 sequence (P07550 whole entry): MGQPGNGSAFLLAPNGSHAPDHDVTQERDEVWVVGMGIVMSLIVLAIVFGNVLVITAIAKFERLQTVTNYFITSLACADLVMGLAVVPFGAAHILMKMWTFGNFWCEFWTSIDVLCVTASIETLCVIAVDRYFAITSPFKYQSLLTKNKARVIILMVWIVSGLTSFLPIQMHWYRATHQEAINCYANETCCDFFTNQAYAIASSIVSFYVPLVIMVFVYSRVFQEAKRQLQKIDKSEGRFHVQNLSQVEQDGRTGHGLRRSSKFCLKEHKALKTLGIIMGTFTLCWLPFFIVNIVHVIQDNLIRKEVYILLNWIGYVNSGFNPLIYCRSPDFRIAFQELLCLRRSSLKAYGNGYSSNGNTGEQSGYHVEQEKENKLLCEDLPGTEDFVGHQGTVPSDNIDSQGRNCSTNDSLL
Sequence of CYP 1A2 (P05177 whole entry): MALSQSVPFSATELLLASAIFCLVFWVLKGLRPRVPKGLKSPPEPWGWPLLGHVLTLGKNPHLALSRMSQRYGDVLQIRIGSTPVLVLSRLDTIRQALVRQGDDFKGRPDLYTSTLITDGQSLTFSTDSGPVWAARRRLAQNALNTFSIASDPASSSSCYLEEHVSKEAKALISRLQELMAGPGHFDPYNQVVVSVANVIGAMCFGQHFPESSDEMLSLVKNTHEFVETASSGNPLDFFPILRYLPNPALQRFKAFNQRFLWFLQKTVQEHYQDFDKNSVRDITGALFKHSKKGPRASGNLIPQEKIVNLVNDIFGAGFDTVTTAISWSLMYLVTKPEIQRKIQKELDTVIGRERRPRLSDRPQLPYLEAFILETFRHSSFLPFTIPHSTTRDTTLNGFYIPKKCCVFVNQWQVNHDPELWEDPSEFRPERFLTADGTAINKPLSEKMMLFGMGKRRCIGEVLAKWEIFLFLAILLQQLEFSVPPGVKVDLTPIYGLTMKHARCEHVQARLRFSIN
T4 sequence (P35348 whole entry): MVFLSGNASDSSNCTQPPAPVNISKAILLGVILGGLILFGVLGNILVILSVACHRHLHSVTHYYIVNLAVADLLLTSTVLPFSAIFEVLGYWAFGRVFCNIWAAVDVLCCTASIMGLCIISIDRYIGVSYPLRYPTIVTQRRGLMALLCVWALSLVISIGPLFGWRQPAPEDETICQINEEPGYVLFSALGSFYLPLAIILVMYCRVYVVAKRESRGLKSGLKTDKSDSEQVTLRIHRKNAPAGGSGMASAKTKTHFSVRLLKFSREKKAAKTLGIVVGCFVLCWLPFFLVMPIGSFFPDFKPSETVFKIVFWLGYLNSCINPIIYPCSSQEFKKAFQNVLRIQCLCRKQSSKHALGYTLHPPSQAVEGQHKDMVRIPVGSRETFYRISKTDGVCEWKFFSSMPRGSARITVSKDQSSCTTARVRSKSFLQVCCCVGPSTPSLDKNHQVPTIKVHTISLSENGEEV

## CCOC(=O)c1sc(-c2cccc(F)c2)nc1O [Compound 10, ethyl 2-(3-fluorophenyl)-4-hydroxy-1,3-thiazole-5-carboxylate]
Microsome stability [1]
  Microsome stability (% remaining) @1 μM: 4%
CYP 2D6
  CYP (% inhibition) @10 μM, 2D6: <5%
TRPM8 [2]
  IC50: 0.0002 µM
TRPV4
  inhibition at 1 µM: 2%
  inhibition at 10 µM: 8.9%
CYP 2C19
  CYP (% inhibition) @10 μM, 2C19: <5%
Female rats; 10 mg/kg i.v., first 30 min of the experiment
  reduction of Micturition Frequency (MF): about 36%
Female rats; intravesical route, 2.3 mg/rat
  continuous rhythmic bladder contraction (RBC) induced by filling with saline: completely abolished
Female rats; [19]
  Amplitude of Micturition (AM): did not change
  Threshold Volume (TV): 1.5 mL
Female rats; intravesical, 3 times 100 μL containing 0.1 mg, measured during 90 min
  effect on the total Micturition Frequency (MF): No effect
TRPV1
  inhibition at 1 µM: 1.2%
  inhibition at 10 µM: 2.3%
[3]
  half-life: 0.833 h
Microsome stability [4]
  Microsome stability (% remaining) @1 μM: 5%
[5]
  remaining activity at 10 µM: 87%
[6]
  remaining activity at 10 µM: 98%
[7]
  remaining activity at 10 µM: 100%
[8]
  remaining activity at 10 µM: 100%
[9]
  remaining activity at 10 µM: 102%
[10]
  remaining activity at 10 µM: 90%
[11]
  remaining activity at 10 µM: 100%
[12]
  remaining activity at 10 µM: 99.3%
[13]
  remaining activity at 10 µM: 88%
[14]
  remaining activity at 10 µM: 90%
[15]
  remaining activity at 10 µM: 82%
TRPM8 [16]
  antagonist activity in calcium influx assay: confirmed the antagonist activity
CYP 1A2
  CYP (% inhibition) @10 μM, 1A2: <5%

## O=C(O)c1sc(-c2ccc(Cl)cc2)nc1OCc1ccc(Cl)cc1 [Compound 45, 4-[(4-chlorobenzyl)oxy]-2-(4-chlorophenyl)-1,3-thiazole-5-carboxylic acid]
CYP 2D6
  CYP (% inhibition) @10 μM, 2D6: <5%
TRPM8 [2]
  IC50: 1 µM
TRPV4
  inhibition at 1 µM: 5.1%
  inhibition at 10 µM: 3.1%
CYP 2C19
  CYP (% inhibition) @10 μM, 2C19: <5%
Plasma stability [17]
  Plasma stability (% remaining) @10 μM: 9%
TRPV1
  inhibition at 1 µM: 3.1%
  inhibition at 10 µM: 6.3%
[3]
  half-life: 4 h
[3]; oral bioavailability
  bioavailability: 60%
[5]
  remaining activity at 10 µM: 97.2%
[6]
  remaining activity at 10 µM: 95%
[7]
  remaining activity at 10 µM: 96%
[8]
  remaining activity at 10 µM: 100%
[9]
  remaining activity at 10 µM: 86.7%
[10]
  remaining activity at 10 µM: 93.2%
[11]
  remaining activity at 10 µM: 100%
[12]
  remaining activity at 10 µM: 100%
[13]
  remaining activity at 10 µM: 93%
[14]
  remaining activity at 10 µM: 96%
[15]
  remaining activity at 10 µM: 90.5%
TRPM8 [16]
  antagonist activity in calcium influx assay: confirmed the antagonist activity
CYP 1A2
  CYP (% inhibition) @10 μM, 1A2: <5%
Plasma stability [18]
  Plasma stability (% remaining) @10 μM: 1%
